From patent publication US4943566A, “Novel 17-aryl-steroids” (Roussel Uclafi, priority 1987, dated 1990)

How the values were obtained:
[1] = test system: mammary Tumoral cells MCF-7; assay: Anti-proliferative activity against the increase of mammary tumoral cells MCF-7 (ADN by DABA fluorimetry); type: cell-based; details: Homo sapiens, MCF7, 144 h; MCF-7 cells, SVF medium, 6 days, ADN content; read-out: CI50 in nM (concentration which inhibits by 50% the increase in the MCF 7 cells)
Procedure: The cell culture line MCF-7 was maintained in culture in SVF (1) medium at 37° C. in a humid atmosphere containing 5% CO2. The cells at subconfluence were collected by trypsination (0.05% trypsine, 0.02% EDTA) then rinsed by gentle centrifiguation. A sample of the cells in suspension was counted by the Malassez cell. To study the increase, the cells resuspended in SVF medium were innoculated at a rate of 30,000 cells per well in a multiwell plate (24 wells per 2.5 cm^2) 24 hours after the innoculation (Day 0), the test compound was added to the medium in an ethanolic solution (final ethanol concentration is 0.1%) a concentration of 10^-6 M. The control wells received the same concentration of ethanol. The mediums were totally renewed at 48 hours. At the end of the experiment (Day 6), the medium was aspirated and the cells were immediately fixed by 150 μl of methanol after a dose of ADN. The anti-proliferative activity of the products was determined by the capacity to inhibit ADN increase.
ADN is dosed by a fluorimetric method using DABA (3,5-diamino benzoic acid). 150 μl of DABA was added to each well and the plates were incubated for 45 minutes at 56° C. and then 1.5 ml of 1N hydrochloric acid was added. The fluoresence was measured with a fluorimeter (excitement length 400 nM-length of emission wave 500 nM). The amount of ADN per well was evaluated with respect to a standard scale obtained by treating under the same conditions an ADN standard of the calf thymus. The concentration in nM which inhibit by 50% the increase in the MCF 7 cells or CI50 was determined in the same manner with the results of the following Table.
The medium for culture of calf fetal serum (SVF) was prepared as follows: MEM medium (minimal essential medium) to which was added non-essential amino acids (GIBCO), peni-strepto (penicillin 100 U/ml, streptomycine 0.1 mg/ml), 0.1% fungizone, 50 ng/ml of insulin and a 10% final concentration of calf fetal serum free of endrogenic steroids.

[2] = molecular target: T1, glucocorticoid receptor, rat thymus (Rattus norvegicus, UniProt P06536); assay: Relative binding affinity (ARL), glucocorticoid receptor of rat thymus; details: rat thymus cytosol, tritiated dexamethasone, cold reference dexamethasone; for relative affinity of the bond (ARL), Glucocorticoid, 2H: incubation 2H at 0° C.; for relative affinity of the bond (ARL), Glucocorticoid, 24H: incubation 24H at 0° C.
T1 construct: The second test was a glucocrticoid receptor test on rat thymus; from tissue; host or cells: thymus of adrenalectomized male Sprague Dawley EOPS rats, 105,000 g supernatant (cytosol)
T1 sequence (P06536 1-795): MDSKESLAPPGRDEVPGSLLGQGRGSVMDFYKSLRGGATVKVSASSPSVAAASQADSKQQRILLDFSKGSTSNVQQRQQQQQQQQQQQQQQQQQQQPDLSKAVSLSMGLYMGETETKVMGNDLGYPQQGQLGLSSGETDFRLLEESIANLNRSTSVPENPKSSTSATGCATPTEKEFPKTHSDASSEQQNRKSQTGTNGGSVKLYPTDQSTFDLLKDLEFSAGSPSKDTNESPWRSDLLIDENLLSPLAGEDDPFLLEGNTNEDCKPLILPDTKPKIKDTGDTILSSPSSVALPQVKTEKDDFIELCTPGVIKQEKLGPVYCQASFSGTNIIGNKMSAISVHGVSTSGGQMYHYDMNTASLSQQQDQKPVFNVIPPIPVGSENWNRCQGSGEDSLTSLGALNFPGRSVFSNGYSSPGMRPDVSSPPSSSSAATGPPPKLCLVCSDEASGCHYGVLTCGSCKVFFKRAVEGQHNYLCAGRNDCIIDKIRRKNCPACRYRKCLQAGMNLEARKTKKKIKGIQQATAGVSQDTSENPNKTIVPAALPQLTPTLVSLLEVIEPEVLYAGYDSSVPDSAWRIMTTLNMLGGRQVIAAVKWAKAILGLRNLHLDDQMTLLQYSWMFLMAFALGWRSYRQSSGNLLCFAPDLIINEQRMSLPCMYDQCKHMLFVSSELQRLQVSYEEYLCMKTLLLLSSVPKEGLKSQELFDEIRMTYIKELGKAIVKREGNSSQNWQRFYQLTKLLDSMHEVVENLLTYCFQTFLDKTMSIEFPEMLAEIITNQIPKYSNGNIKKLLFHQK
Procedure: The second test was a glucocrticoid receptor test on rat thymus in which male rats of the Sprague Dawley EOPS strain weighing 160 to 200 g were surrenalectomized. 4 to 8 days after this ablation, the animals were killed and the thymus was removed and homogenized at 0° C. in a buffered TS solution. (Tris 10 mM, 0.25M saccharose, 2 mM dithiothreitol, HCl pH 7.4) with a Potter tetrafluoroethylene-glass (1 g of tissue per 10 ml/TS). The homogenate was ultracentrifuged at 105,000 for 90 minutes at 0° C. and the surnageant samples were incubated at 0° C. for a time t with a constant concentration T of tritiated dexamethasone in the presence of increasing concentrations (0-2500×10^-9 M) or cold dexamethasone or cold test compound. The concentration B of bound tritiated dexamethasone was measured for each incubate by carbon-dextran absorption technique.
(§1) The relative affinity of the bond (ARL) was calculated in the same for the receptors. One traced the following 2 curves: the percentage of bond tritiated hormone B/T as a logarithmic function of the concentration of the cold reference hormone and B/T as a logarithmic function of the concentration of the cold test compound. Using the equation [formula] B/T max.=% of bound tritiated hormone for one incubation of tritiated hormone at concentration (T)
(§2) B/T min.=% of bound tritiated hormone for one incubation of tritiated hormone at a concentration T in the presence of a great excess of cold hormone (2500×10^-9 M).
(§3) The intersections of I50 lines and the curves permit an evaluation of the hormone concentration of the cold reference (CH) and the cold test compound (CX) which inhibited by 50% the bounding of tritiated hormone to the receptor. The ARL of the test compound was determined by the equation. [formula] and the following results were obtained.

[3] = molecular target: T2, progesterone receptors of rabbit uterus (Oryctolagus cuniculus, UniProt P06186); assay: Relative binding affinity (ARL), progesterone receptors of rabbit uterus; details: rabbit uterus cytosol, tritiated 17,21-dimethyl-19-nor-Δ4,9-pregnadiene-3,20-dione, cold reference hormone progesterone; for relative affinity of the bond (ARL), Progestogen, 2H: incubation 2H at 0° C.; for relative affinity of the bond (ARL), Progestogen, 24H: incubation 24H at 0° C.
T2 construct: The first test was on the progesterone receptors of rabbit uterus; from tissue; host or cells: uterus of estradiol-treated immature rabbits, 105,000 g supernatant (cytosol)
T2 sequence (P06186 1-930): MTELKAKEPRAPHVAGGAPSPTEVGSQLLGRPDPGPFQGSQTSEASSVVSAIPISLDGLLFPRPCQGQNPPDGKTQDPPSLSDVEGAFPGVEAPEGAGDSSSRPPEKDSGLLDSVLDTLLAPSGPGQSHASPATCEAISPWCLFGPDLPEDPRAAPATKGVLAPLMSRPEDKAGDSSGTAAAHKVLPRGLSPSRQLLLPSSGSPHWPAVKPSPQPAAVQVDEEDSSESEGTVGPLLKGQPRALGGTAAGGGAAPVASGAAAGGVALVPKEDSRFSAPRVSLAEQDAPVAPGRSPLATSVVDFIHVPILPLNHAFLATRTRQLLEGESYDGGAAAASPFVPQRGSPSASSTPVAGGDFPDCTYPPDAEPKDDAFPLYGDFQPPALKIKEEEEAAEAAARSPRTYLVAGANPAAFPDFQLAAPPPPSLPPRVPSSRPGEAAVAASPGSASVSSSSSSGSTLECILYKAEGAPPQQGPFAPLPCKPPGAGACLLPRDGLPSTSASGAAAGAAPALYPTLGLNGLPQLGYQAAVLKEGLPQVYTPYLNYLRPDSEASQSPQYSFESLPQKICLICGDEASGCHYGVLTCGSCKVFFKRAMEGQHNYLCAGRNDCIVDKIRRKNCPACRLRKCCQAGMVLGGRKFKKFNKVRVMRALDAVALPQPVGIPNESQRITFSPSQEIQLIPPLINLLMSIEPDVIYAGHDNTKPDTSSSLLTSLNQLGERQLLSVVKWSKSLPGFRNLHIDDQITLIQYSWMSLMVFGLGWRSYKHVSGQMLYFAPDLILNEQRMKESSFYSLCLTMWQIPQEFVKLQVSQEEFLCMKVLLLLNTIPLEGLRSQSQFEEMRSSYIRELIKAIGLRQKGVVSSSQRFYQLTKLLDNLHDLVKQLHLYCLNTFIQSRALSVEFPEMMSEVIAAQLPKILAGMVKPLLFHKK
Procedure: The first test was on the progesterone receptors of rabbit uterus in which immature rabbits weighing about 1 kg received a cutaneous application of […] of estradiol and 5 days after treatment, the animals were sacrificed. The […] was removed, weighed and homogenized at 0° C. with a Potter Teflon-glass ina buffered solution. TS (Tris 10 mM, 0.25M Saccharose, HCl, pH 7.4) (1 g of tissue per 50 ml of TS). The homogenate was ultracentrifuged at 105,000 g×90 minutes at 0° C. The surnageant samples were incubated at a time at (t) 0° C. with a constant concentration (T) of tritiated product (R) which is 17,21-dimethyl-19-nor-Δ^4,9 -pregnadiene-3,20-dione in the presence of increasing concentrations from 0 to 2500×10^-9 M or cold R or cold progestenone or cold test compound. The concentration of bound tritiated R was measured for each incubate by absorption technique on dextran carbon.
as §1, §2, §3

Row | Compound | IC50 [1] [nM] | relative affinity of the bond (ARL), Glucocorticoid, 2H [2] | relative affinity of the bond (ARL), Glucocorticoid, 24H [2] | relative affinity of the bond (ARL), Progestogen, 2H [3] | relative affinity of the bond (ARL), Progestogen, 24H [3]
1 | CN(C)c1ccc([C@H]2C[C@@]3(C)[C@@H](CC[C@@]3(O)c3ccc(O)cc3)[C@@H]3CCC4=CC(=O)CCC4=C32)cc1 [6 Product A] | 50 | – | – | – | –
2 | CN(C)c1ccc([C@H]2C[C@]3(C)C(c4ccc(O)cc4)=CC[C@H]3[C@@H]3CCC4=CC(=O)CCC4=C32)cc1 [6 Product B] | 50 | – | – | – | –
3 | CN(C)c1ccc([C@H]2C[C@@]3(C)[C@@H](CC[C@@]3(O)c3cccc(O)c3)[C@@H]3CCC4=CC(=O)CCC4=C32)cc1 [Example 13 (Product A), 11β-(4-dimethylamino-phenyl)-17α-(3-hydroxy-phenyl)-Δ^4,9-estradiene-17β-ol-3-one] | – | 153 | 145 | 34 | 122
4 | COc1ccccc1[C@]1(O)CC[C@H]2[C@@H]3CCC4=CC(=O)CCC4=C3[C@@H](c3ccc(N(C)C)cc3)C[C@@]21C [Example 11 (Product A), 11β-(4-dimethylamino-phenyl)-17α-(2-methoxy-phenyl)-Δ^4,9-estradiene-17β-ol-3-one] | – | 56 | 45 | 38 | 230
5 | COc1ccc(C2=CC[C@H]3[C@@H]4CCC5=CC(=O)CCC5=C4[C@@H](c4ccc(N(C)C)cc4)C[C@]23C)cc1 [Example 5, 11β-(4-dimethylamino-phenyl)-17-(4-methoxy-phenyl)-Δ^4,9,16-estratriene-3-one] | 1000 | – | – | – | –
6 | CN(C)c1ccc(C2=CC[C@H]3[C@@H]4CCC5=CC(=O)CCC5=C4[C@@H](c4ccc(N(C)C)cc4)C[C@]23C)cc1 [Example 3, 11β,17-bis-(4-dimethylamino-phenyl)-Δ^4,9,16-estratriene-3-one] | 800 | – | – | – | –
7 | CN(C)c1ccc([C@H]2C[C@@]3(C)[C@@H](CC[C@]3(O)c3cccc(O)c3)[C@@H]3CCC4=CC(=O)CCC4=C32)cc1 [Example 13 (Product B), 11β-(4-dimethylaminophenyl)-17β-(3-hydroxy-phenyl)-Δ^4,9-estradiene-17α-ol-3-one] | – | 76 | 63 | 1,9 | 1,7
